Source: patent publication US8222404B2, “[1,2,4]Thiadiazin-3-yl acetic acid compound and methods of making the acetic acid compound” (Anadys Pharmaceuticals, Inc., priority 2008, dated 2012)

Tested on: HCV Huh-luc/neo-ET replicon cells
Experiment: Luciferase-Based HCV Replicon Assay (EC50 (1b))
Assay type: cell-based
Conditions: Hepatitis C virus, 72 hours exposure, luciferase activity
How it was run: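 EC50 (1b) derived from % inhibition of luciferase signal relative to untreated cells, background set by 100 nM BILN-2061 (protease inhibitor). Triplicate dose series added to replicon cells 24 h post-seeding; luminescence measured after 72 h compound exposure.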

`CC(C)(C)CCN1C(=O)C(C2=NS(=O)(=O)c3c(CNS(C)(=O)=O)csc3N2)=C(O)[C@@H]2[C@H]3CC[C@H](C3)[C@@H]21` [Example 67, N-{3-[(1R,2S,7R,8S)-3-(3,3-Dimethyl-butyl)-6-hydroxy-4-oxo-3-aza-tricyclo[6.2.1.0^2,7]undec-5-en-5-yl]-1,1-dioxo-1,4-dihydro-1λ^6-thieno[2,3-e][1,2,4]thiadiazin-7-ylmethyl}-methanesulfonamide] and `CC(C)(C)CCN1C(=O)C(C2=NS(=O)(=O)c3c(CNS(C)(=O)=O)csc3N2)=C(O)[C@@H]2C3CCC(CC3)[C@@H]21` [Example 93, N-{3-[(2S,7R)-3-(3,3-Dimethyl-butyl)-6-hydroxy-4-oxo-3-aza-tricyclo[6.2.2.0^2,7]dodec-5-en-5-yl]-1,1-dioxo-1,4-dihydro-1λ^6-thieno[2,3-e][1,2,4]thiadiazin-7-ylmethyl}-methanesulfonamide] cannot be ordered by EC50: 5 to 20 nM for the first, no more than 5 nM for the second.

First: CC(C)CCN1C(=O)C(C2=NS(=O)(=O)c3c(CNS(C)(=O)=O)csc3N2)=C(O)[C@@H]2[C@H]3CC[C@H](C3)[C@@H]21 [Example 68, N-{3-[(1R,2S,7R,8S)-6-Hydroxy-3-(3-methyl-butyl)-4-oxo-3-aza-tricyclo[6.2.1.0^2,7]undec-5-en-5-yl]-1,1-dioxo-1,4-dihydro-1λ^6-thieno[2,3-e][1,2,4]thiadiazin-7-ylmethyl}-methanesulfonamide]
Second: CC(C)CCN1C(=O)C(C2=NS(=O)(=O)c3c(CNS(C)(=O)=O)csc3N2)=C(O)[C@@H]2[C@@H]3CC[C@@H](C3)[C@@H]21 [Example 69, N-{3-[(1S,2S,7R,8R)-6-Hydroxy-3-(3-methyl-butyl)-4-oxo-3-aza-tricyclo[6.2.1.0^2,7]undec-5-en-5-yl]-1,1-dioxo-1,4-dihydro-1λ^6-thieno[2,3-e][1,2,4]thiadiazin-7-ylmethyl}-methanesulfonamide]
The EC50 of the first is lower: 5 to 20 nM for the first, 20 to 100 nM for the second. The first is the more potent here.

`CS(=O)(=O)NCc1csc2c1S(=O)(=O)N=C(C1=C(O)[C@@H]3C4CCC(CC4)[C@@H]3N(Cc3cc(F)c(F)c(F)c3)C1=O)N2` [Example 70, N-{3-[(2S,7R)-6-Hydroxy-4-oxo-3-(3,4,5-trifluoro-benzyl)-3-aza-tricyclo[6.2.2.0^2,7]dodec-5-en-5-yl]-1,1-dioxo-1,4-dihydro-1λ^6-thieno[2,3-e][1,2,4]thiadiazin-7-ylmethyl}-methanesulfonamide] and `CS(=O)(=O)NCc1csc2c1S(=O)(=O)N=C(C1=C(O)[C@@H]3C4CCC(CC4)[C@@H]3N(Cc3ccc(F)c(F)c3)C1=O)N2` [Example 92, N-{3-[(2S,7R)-3-(3,4-Difluoro-benzyl)-6-hydroxy-4-oxo-3-aza-tricyclo[6.2.2.0^2,7]dodec-5-en-5-yl]-1,1-dioxo-1,4-dihydro-1λ^6-thieno[2,3-e][1,2,4]thiadiazin-7-ylmethyl}-methanesulfonamide] cannot be ordered by EC50: no more than 5 nM for the first, no more than 5 nM for the second.

`CC(C)CCN1C(=O)C(C2=NS(=O)(=O)c3c(CNS(C)(=O)=O)csc3N2)=C(O)[C@@H]2C3CCC(CC3)[C@@H]21` [Example 71, N-{3-[(2S,7R)-6-Hydroxy-3-(3-methyl-butyl)-4-oxo-3-aza-tricyclo[6.2.2.0^2,7]dodec-5-en-5-yl]-1,1-dioxo-1,4-dihydro-1λ^6-thieno[2,3-e][1,2,4]thiadiazin-7-ylmethyl]-methanesulfonamide] and `CS(=O)(=O)NCc1csc2c1S(=O)(=O)N=C(C1=C(O)[C@@H]3C4CCC(CC4)[C@@H]3N(Cc3ccc(F)cc3)C1=O)N2` [Example 91, N-{3-[(2S,7R)-3-(4-Fluoro-benzyl)-6-hydroxy-4-oxo-3-aza-tricyclo[6.2.2.0^2,7]dodec-5-en-5-yl]-1,1-dioxo-1,4-dihydro-1λ^6-thieno[2,3-e][1,2,4]thiadiazin-7-ylmethyl}-methanesulfonamide] cannot be ordered by EC50: 5 to 20 nM for the first, no more than 5 nM for the second.

`COc1ccc(CN2C(=O)C(C3=NS(=O)(=O)c4c(CNS(C)(=O)=O)csc4N3)=C(O)[C@@H]3[C@H]4CC[C@H](C4)[C@@H]32)c(OC)c1` [Example 72, N-{3-[(1R,2S,7R,8S)-3-(2,4-Dimethoxy-benzyl)-6-hydroxy-4-oxo-3-aza-tricyclo[6.2.1.0^2,7]undec-5-en-5-yl]-1,1-dioxo-1,4-dihydro-1λ^6-thieno[2,3-e][1,2,4]thiadiazin-7-ylmethyl}-methanesulfonamide] and `COc1ccc(CN2C(=O)C(C3=NS(=O)(=O)c4c(CNS(C)(=O)=O)csc4N3)=C(O)[C@@H]3[C@@H]4CC[C@@H](C4)[C@@H]32)c(OC)c1` [Example 73, N-{3-[(1S,2S,7R,8R)-3-(2,4-Dimethoxy-benzyl)-6-hydroxy-4-oxo-3-aza-tricyclo[6.2.1.0^2,7]undec-5-en-5-yl]-1,1-dioxo-1,4-dihydro-1λ^6-thieno[2,3-e][1,2,4]thiadiazin-7-ylmethyl}-methanesulfonamide] cannot be ordered by EC50: greater than 1000 nM for the first, greater than 1000 nM for the second.

Compared with `COc1ccc(CN2C(=O)C(C3=NS(=O)(=O)c4c(CNS(C)(=O)=O)csc4N3)=C(O)[C@@H]3C4CCC(CC4)[C@@H]32)c(OC)c1` [Example 74, N-{3-[(2S,7R)-3-(2,4-Dimethoxy-benzyl)-6-hydroxy-4-oxo-3-aza-tricyclo[6.2.2.0^2,7]dodec-5-en-5-yl]-1,1-dioxo-1,4-dihydro-1λ^6-thieno[2,3-e][1,2,4]thiadiazin-7-ylmethyl}-methanesulfonamide], `CS(=O)(=O)NCc1csc2c1S(=O)(=O)N=C(C1=C(O)[C@@H]3C4CCC(CC4)[C@@H]3N(Cc3ccc(F)cc3Cl)C1=O)N2` [Example 96, N-{3-[(2S,7R)-3-(2-Chloro-4-fluoro-benzyl)-6-hydroxy-4-oxo-3-aza-tricyclo[6.2.2.0^2,7]dodec-5-en-5-yl]-1,1-dioxo-1,4-dihydro-1λ^6-thieno[2,3-e][1,2,4]thiadiazin-7-ylmethyl}-methanesulfonamide] is lower in EC50: greater than 1000 nM for the first, 20 to 100 nM for the second. The second is the more potent here.

First: COc1ccc(CN2C(=O)C(C3=NS(=O)(=O)c4c(CNS(C)(=O)=O)csc4N3)=C(O)[C@@H]3CCC[C@@H]32)c(OC)c1 [Example 77, (4aR,7aS)-N-{3-[1-(2,4-Dimethoxy-benzyl)-4-hydroxy-2-oxo-2,4a,5,6,7,7a-hexahydro-1H-[1]pyrindin-3-yl]-1,1-dioxo-1,4-dihydro-1λ^6-thieno[2,3-e][1,2,4]thiadiazin-7-ylmethyl}-methanesulfonamide]
Second: CS(=O)(=O)NCc1csc2c1S(=O)(=O)N=C(C1=C(O)[C@@H]3[C@H]4CC[C@H](C4)[C@@H]3N(Cc3ccc(F)cc3Cl)C1=O)N2 [Example 94, N-{3-[(1R,2S,7R,8S)-3-(2-Chloro-4-fluoro-benzyl)-6-hydroxy-4-oxo-3-aza-tricyclo[6.2.1.0^2,7]undec-5-en-5-yl]-1,1-dioxo-1,4-dihydro-1λ^6-thieno[2,3-e][1,2,4]thiadiazin-7-ylmethyl}-methanesulfonamide]
The EC50 of the first is higher: greater than 1000 nM for the first, 20 to 100 nM for the second. The second is the more potent here.

`CS(=O)(=O)NCc1csc2c1S(=O)(=O)N=C(C1=C(O)[C@@H]3[C@H]4CC[C@H](C4)[C@@H]3NC1=O)N2` [Example 80, N-[3-((1R,2S,7R,8S)-6-Hydroxy-4-oxo-3-aza-tricyclo[6.2.1.0^2,7]undec-5-en-5-yl)-1,1-dioxo-1,4-dihydro-1λ^6-thieno[2,3-e][1,2,4]thiadiazin-7-ylmethyl]-methanesulfonamide] and `CS(=O)(=O)NCc1csc2c1S(=O)(=O)N=C(C1=C(O)[C@@H]3[C@@H]4CC[C@@H](C4)[C@@H]3NC1=O)N2` [Example 81, N-[3-((1S,2S,7R,8R)-6-Hydroxy-4-oxo-3-aza-tricyclo[6.2.1.0^2,7]undec-5-en-5-yl)-1,1-dioxo-1,4-dihydro-1λ^6-thieno[2,3-e][1,2,4]thiadiazin-7-ylmethyl]-methanesulfonamide] cannot be ordered by EC50: greater than 1000 nM for the first, greater than 1000 nM for the second.

`CS(=O)(=O)NCc1csc2c1S(=O)(=O)N=C(C1=C(O)[C@@H]3C4CCC(CC4)[C@@H]3NC1=O)N2` [Example 82, N-[3-((2S,7R)-6-Hydroxy-4-oxo-3-aza-tricyclo[6.2.2.0^2,7]dodec-5-en-5-yl)-1,1-dioxo-1,4-dihydro-1λ^6-thieno[2,3-e][1,2,4]thiadiazin-7-ylmethyl]-methanesulfonamide] and `CS(=O)(=O)NCc1csc2c1S(=O)(=O)N=C(C1=C(O)[C@@H]3CCC[C@@H]3NC1=O)N2` [Example 85, (4aR,7aS)-N-[3-(4-Hydroxy-2-oxo-2,4a,5,6,7,7a-hexahydro-1H-[1]pyrindin-3-yl)-1,1-dioxo-1,4-dihydro-1λ^6-thieno[2,3-e][1,2,4]thiadiazin-7-ylmethyl]-methanesulfonamide] cannot be ordered by EC50: greater than 1000 nM for the first, greater than 1000 nM for the second.

Compared with `CS(=O)(=O)NCc1csc2c1S(=O)(=O)N=C(C1=C(O)[C@@H]3[C@H]4CC[C@H](C4)[C@@H]3N(Cc3ccc(F)c(F)c3)C1=O)N2` [Example 88, N-{3-[(1R,2S,7R,8S)-3-(3,4-Difluoro-benzyl)-6-hydroxy-4-oxo-3-aza-tricyclo[6.2.1.0^2,7]undec-5-en-5-yl]-1,1-dioxo-1,4-dihydro-1λ^6-thieno[2,3-e][1,2,4]thiadiazin-7-ylmethyl}-methanesulfonamide], `CS(=O)(=O)NCc1csc2c1S(=O)(=O)N=C(C1=C(O)[C@@H]3[C@@H]4CC[C@@H](C4)[C@@H]3N(Cc3ccc(F)c(Cl)c3)C1=O)N2` [Example 95, N-{3-[(1 S,2S,7R,8R)-3-(3-Chloro-4-fluoro-benzyl)-6-hydroxy-4-oxo-3-aza-tricyclo[6.2.1.0^2,7]undec-5-en-5-yl]-1,1-dioxo-1,4-dihydro-1λ^6-thieno[2,3-e][1,2,4]thiadiazin-7-ylmethyl}-methanesulfonamide] is higher in EC50: no more than 5 nM for the first, 20 to 100 nM for the second. The first is the more potent here.

First: CS(=O)(=O)NCc1csc2c1S(=O)(=O)N=C(C1=C(O)[C@@H]3[C@@H]4CC[C@@H](C4)[C@@H]3N(Cc3ccc(F)cc3)C1=O)N2 [Example 89, N-{3-[(1S,2S,7R,8R)-3-(4-Fluoro-benzyl)-6-hydroxy-4-oxo-3-aza-tricyclo[6.2.1.0^2,7]undec-5-en-5-yl]-1,1-dioxo-1,4-dihydro-1λ^6-thieno[2,3-e][1,2,4]thiadiazin-7-ylmethyl}-methanesulfonamide]
Second: CS(=O)(=O)NCc1csc2c1S(=O)(=O)N=C(C1=C(O)[C@@H]3[C@H]4CC[C@H](C4)[C@@H]3N(C3CCCCC3)C1=O)N2 [Example 97, N-[3-((1R,2S,7R,8S)-3-Cyclohexyl-6-hydroxy-4-oxo-3-aza-tricyclo[6.2.1.0^2,7]undec-5-en-5-yl)-1,1-dioxo-1,4-dihydro-1λ^6-thieno[2,3-e][1,2,4]thiadiazin-7-ylmethyl]-methanesulfonamide]
The EC50 of the first is lower: no more than 5 nM for the first, 100 to 1000 nM for the second.
